Test: Inverse agonist activity at RORgammat in mouse CD4 positive T cells assessed as inhibition of Th17 cell differentiation by measuring IL-17 release after 4 days by cellular staining based flow cytometry

**Q.** For `N#Cc1cccc(C(=O)Nc2ccc3c(c2)C(N2CCN(C(=O)C4CCCC4)CC2)CC3)c1` (centres undefined), which IC50 is on record?
**A.** Its IC50 is 2660 nM.

**Q.** For `N#Cc1cccc(C(=O)Nc2cccc3c2CCC3N2CCN(C(=O)C3CCCC3)CC2)c1` (centres undefined), which IC50 is on record?
**A.** The IC50 was 1780 nM.

**Q.** For `N#Cc1cccc(C(=O)Nc2ccc3c(c2)C(N2CC4CCC(C2)N4C(=O)C2CCCC2)CC3)c1` (centres undefined), which IC50 is on record?
**A.** The IC50 was 423 nM.

**Q.** With `N#Cc1cccc(C(=O)Nc2cccc3c2CCC3N2CC3CCC(C2)N3C(=O)C2CCCC2)c1` (centres undefined) as the compound, how does the IC50 read?
**A.** Its IC50 is 385 nM.

Reference: BindingDB's records for doi:10.1016/j.ejmech.2019.01.082 (Fudan University, 2019)
